Legend:
[1] = tested on: FIVPet; experiment: Anti-FIV activity (RT activity in supernatant) in feline T-cell line chronically infected with FIVPet (FL-4 cells); assay type: cell-based, Feline immunodeficiency virus; details: nontoxic doses
Procedure: (§1) The antiviral activity of the drugs at noncytotoxic doses were evaluated in feline T-cell lines chronically infected with either FIVPet (subtype A strain) (panel A), or FIVBang (subtype B strain) (panel B). The RT data are presented as % control, whereby % control represents RT mean of triplicate treated cultures divided by RT mean of triplicate untreated cultures and multiplied by 100. The RT data on harvest days at 6, 9, and 12 are shown.
(§2) In the first set of in vitro studies, feline T-cell lines chronically infected with FIVPet, (FL-4 cells) or FIVBang, (FIVBang/FeT-J cells) at 2×10^5 cells/ml were treated for 3 weeks with a single drug or various combinations of AZT, 3TC, an FIV protease inhibitor (FIV-PI; Hoescht-Bayer HBY-793), and HIV protease inhibitors (HIV-PI) (FIGS. 1A and 1B). Saquinavir (SQV) and Indinavir (IDV) were used as the HIV-PIs. Culture supernatants were harvested and the cells were resuspended in fresh culture media containing appropriate drug(s) at […]. Viral replication was determined by measuring the levels of reverse transcriptase (RT) activity in the culture supernatants (Rey et al., 1984). Drug toxicity in these cultures were monitored by viability and absolute cell count analyses using trypan blue exclusion method (Mishell et al., 1980).
(§3) Single and combination drug doses which were determined to be nontoxic to the test cells were used in these studies.

[2] = tested on: FIVBang; experiment: Anti-FIV activity (RT activity in supernatant) in feline T-cell line chronically infected with FIVBang (FIVBang/FeT-J cells); assay type: cell-based, Feline immunodeficiency virus; details: nontoxic doses
Procedure: as §1, §2, §3

[3] = tested on: FIVBang; experiment: Anti-FIV activity (RT activity) in primary cat PBMC infected with FIVBang; assay type: cell-based, Feline immunodeficiency virus; details: for FIV replication in PBMC (RT activity), result in words: FIVBang 100 TCID50, drug added immediately before inoculation, nontoxic doses; for effect of adding the protease inhibitor to the AZT/3TC combination on antiviral activity: FIVBang
Procedure: Nucleoside analogue and PI doses were 0.1 μM in Experiment 1 (panel A) and 0.05 μM and 0.01 μM, respectively, in Experiment 2 (panel B).
(§4) As a means to simulate in vivo conditions, primary peripheral blood mononuclear cells (PBMC) from specific pathogen free (SPF) cats were next used as the indicator cells. Primary PBMC isolated by ficoll hypaque method were stimulated with concanavalin A for 3 days and cultured for an additional 2 weeks before their use in drug studies (Staszewski, 1995). Antiretroviral drug(s) were added to the PBMC cultures (1×10^6 cells/ml) immediately before FIVBang, (subtype B) or FIVUK-8(subtype A) inoculation of 100 50% tissue culture infectious dose (TCID50).

[4] = tested on: FIVUK-8; experiment: Anti-FIV activity (RT activity) in primary cat PBMC infected with FIVUK-8; assay type: cell-based, Feline immunodeficiency virus; details: for FIV replication in PBMC (RT activity), result in words: FIVUK-8 100 TCID50, drug added immediately before inoculation, nontoxic doses; for effect of adding the protease inhibitor to the AZT/3TC combination on antiviral activity: FIVUK-8
Procedure: Nucleoside analogue and P1 doses were 0.1 μM and 0.01-0.5 μM, respectively, in Experiment 1 (panel A) and 0.05 μM and 0.01-0.5 μM respectively, in Experiment 2 (panel B).
as §4

[5] = target: FIV protease (Feline immunodeficiency virus, UniProt P16088); details: Dunn et al., 1994; Wlodawer et al., 1995; cited from earlier work
[6] = target: HIV protease (Human immunodeficiency virus type 1 group M subtype B, UniProt P04585); details: Dunn et al., 1994; Wlodawer et al., 1995; cited from earlier work
[7] = tested on: FIV; details: background statement, no reference given; cited from earlier work

| SMILES | inhibition of RT activity / FIV replication ([1]; treated for 3 weeks) | inhibition of RT activity / FIV replication ([2]; treated for 3 weeks) | FIV replication in PBMC (RT activity), result in words [3] | FIV replication in PBMC (RT activity), result in words [4] | binding to FIV protease [5] | binding to HIV protease [6] | anti-FIV activity (RT activity), result in words [1] | anti-FIV activity (RT activity), result in words [2] | effect of adding the protease inhibitor to the AZT/3TC combination on antiviral activity [3] | effect of adding the protease inhibitor to the AZT/3TC combination on antiviral activity [4] | FIV replication in PBMC in vitro [7] |
| --- | --- | --- | --- | --- | --- | --- | --- | --- | --- | --- | --- |
| CC(C)[C@H](NC(=O)[C@H](Cc1cccc2ccccc12)CS(=O)(=O)C(C)(C)C)C(=O)N[C@@H](Cc1ccccc1)[C@H](O)[C@H](O)[C@H](Cc1ccccc1)NC(=O)[C@@H](NC(=O)[C@H](Cc1cccc2ccccc12)CS(=O)(=O)C(C)(C)C)C(C)C [FIV-PI] | 70-80% | 70-80% | inhibited FIV replication | inhibited FIV replication | efficiently binds | efficiently binds |  |  |  |  |  |
| CC(C)(C)NC(=O)[C@@H]1CN(Cc2cccnc2)CCN1C[C@@H](O)C[C@@H](Cc1ccccc1)C(=O)N[C@H]1c2ccccc2C[C@H]1O [IDV, Indinavir] |  |  | lack of anti-FIV activity | lack of anti-FIV activity |  |  | neither SQV nor IDV alone had significant anti-FIV effect | neither SQV nor IDV alone had significant anti-FIV effect | did not enhance the antiviral activity of the AZT/3TC combination | did not enhance the antiviral activity of the AZT/3TC combination | do not inhibit FIV replication |
| Cc1c(O)cccc1C(=O)N[C@@H](CSc1ccccc1)[C@H](O)CN1C[C@H]2CCCC[C@H]2C[C@H]1C(=O)NC(C)(C)C [Nelfinavir] |  |  |  |  |  |  |  |  |  |  | do not inhibit FIV replication |
| CC(C)c1nc(CN(C)C(=O)N[C@H](C(=O)N[C@@H](Cc2ccccc2)C[C@H](O)[C@H](Cc2ccccc2)NC(=O)OCc2cncs2)C(C)C)cs1 [Ritonavir] |  |  |  |  |  |  |  |  |  |  | do not inhibit FIV replication |
| CC(C)(C)NC(=O)[C@@H]1C[C@@H]2CCCC[C@@H]2CN1C[C@@H](O)[C@H](Cc1ccccc1)NC(=O)[C@H](CC(N)=O)NC(=O)c1ccc2ccccc2n1 [SQV, Saquinavir] |  |  | lack of anti-FIV activity | lack of anti-FIV activity |  |  | neither SQV nor IDV alone had significant anti-FIV effect | neither SQV nor IDV alone had significant anti-FIV effect | did not enhance the antiviral activity of the AZT/3TC combination | did not enhance the antiviral activity of the AZT/3TC combination | do not inhibit FIV replication |

Reference: patent US6875773B1, “Combination therapy for treatment of FIV infection” (priority 1998, dated 2005)
